Article PMC6200136 (Journal of medicinal chemistry, 2017)

Key:
phospho-CDK1 (Tyr15) = assay: Immunoblotting of phospho-CDK1; format: cell-based, human; conditions: synchronized HEK293T and MDA-MB-231 cells, 6 h drug treatment
[1] = test system: HEK293T, MM1.S, and MDA-MB-231 cells; assay: Cell viability across HEK293T, MM1.S and MDA-MB-231; format: cell-based; conditions: Homo sapiens, 72 h, read-out: cell viability IC50 values (range over cell lines)
[2] = test system: phosphorylated TCTP (PLK1 substrate); assay: Immunoblotting of phospho-TCTP; format: cell-based, human; conditions: synchronized HEK293T and MDA-MB-231 cells, 6 h drug treatment
Myt1-KD = biological target: T1, Myt1-KD (Homo sapiens, UniProt Q99640); assay: DSF thermal shift, Myt1 kinase domain; format: binding; conditions: DSF screen, 100 μM
T1 sequence (Q99640 75-361): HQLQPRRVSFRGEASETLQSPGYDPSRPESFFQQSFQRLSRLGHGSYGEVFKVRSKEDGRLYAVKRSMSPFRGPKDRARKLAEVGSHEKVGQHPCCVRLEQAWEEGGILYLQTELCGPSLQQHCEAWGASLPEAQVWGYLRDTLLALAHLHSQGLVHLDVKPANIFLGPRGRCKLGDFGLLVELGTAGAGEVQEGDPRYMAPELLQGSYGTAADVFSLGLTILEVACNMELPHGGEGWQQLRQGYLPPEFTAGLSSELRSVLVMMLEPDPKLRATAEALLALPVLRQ

| binding potential for Myt1 (in words) (Myt1-KD) | SMILES | effect on CDK1 phosphorylation (phospho-CDK1 (Tyr15)) | IC50 [1] [µM] | reduction of phosphorylation levels, times less effective than BI-2536 and 1 [2] |
| --- | --- | --- | --- | --- |
| – | CC[C@@H]1C(=O)N(C)c2cnc(Nc3ccc(C(=O)NC4CCN(C)CC4)cc3OC)nc2N1C1CCCC1 [BI-2536] | no effect | – | – |
| – | C=CCn1c(=O)c2cnc(Nc3ccc(N4CCN(C)CC4)cc3)nc2n1-c1cccc(C(C)(C)O)n1 [MK-1775] | reducing the levels of phosphorylated CDK1 | 0.29 to 0.31 | about 10 times |
| – | C[C@@H](Oc1cc(-n2cnc3ccc(CN4CCN(C)CC4)cc32)sc1C(N)=O)c1ccccc1C(F)(F)F [compound 1, (R)-5-(6-((4-methylpiperazin-1-yl)methyl)-1H-benzo[d]imidazol-1-yl)-3-(1-(2-(trifluoromethyl)phenyl)-ethoxy)thiophene-2-carboxamide] | no effect | – | – |
| no binding potential | CC(=O)NCC(=O)N1[C@@H]2CC[C@H]1c1ccc(Nc3ncc(C(F)(F)F)c(NC4CCC4)n3)cc12 [compound 2] | – | – | – |
